The values that follow come from ChEMBL document CHEMBL4229416, “Identification of PKMYT1 inhibitors by screening the GSK published protein kinase inhibitor set I and II” (Bioorg Med Chem, 2018).

Calls of active or inactive are those of the source. No cut-off for these calls is given here.

For assay [1], the target named is T1, Membrane-associated tyrosine- and threonine-specific cdc2-inhibitory kinase (Homo sapiens, UniProt Q99640).
T1 sequence (Q99640 whole entry): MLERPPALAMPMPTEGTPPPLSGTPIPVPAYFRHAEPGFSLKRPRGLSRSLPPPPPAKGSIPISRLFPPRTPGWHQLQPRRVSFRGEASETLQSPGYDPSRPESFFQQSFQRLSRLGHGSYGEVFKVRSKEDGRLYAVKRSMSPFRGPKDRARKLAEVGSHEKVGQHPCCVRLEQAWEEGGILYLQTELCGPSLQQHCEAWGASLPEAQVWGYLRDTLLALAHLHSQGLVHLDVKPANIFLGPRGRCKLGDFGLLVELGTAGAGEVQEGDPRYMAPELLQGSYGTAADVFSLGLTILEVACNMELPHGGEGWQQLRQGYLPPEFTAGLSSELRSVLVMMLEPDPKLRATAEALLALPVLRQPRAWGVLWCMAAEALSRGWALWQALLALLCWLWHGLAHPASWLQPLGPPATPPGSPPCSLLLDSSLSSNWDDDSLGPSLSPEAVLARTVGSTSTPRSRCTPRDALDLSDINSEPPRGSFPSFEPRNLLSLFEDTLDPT
Description: Inhibition of human full length PKMYT1 expressed in HEK293 cells using EFS (247 to 259 residues) as substrate after 1 hr by fluorescence polarization immunoasay.

In assay [2] the target is T1, Membrane-associated tyrosine- and threonine-specific cdc2-inhibitory kinase. The experiment in a line: Inhibition of N-[3',6'-dihydroxy-3-oxo-3H-spiro(2-benzofuran-1,9'-xanthen)-5-yl]-N'-[2-(4-{4-[N-(2-chloro-6-methylphenyl)-5-carboxamido]-thiazol-2-yl})-amino-2-methyl-pyrimid-6-yl)piperazinyl]-ethyl]thiourea binding to human PKMYT1 kinase doamin expressed in Escherichia coli BL21 after 120 mins by fluorescence polarization asay.

Assay [3] has as its target T2, Membrane-associated tyrosine- and threonine-specific cdc2-inhibitory kinase (Homo sapiens) (UniProt Q99640).
T2 sequence (whole entry): T1 sequence (Q99640 whole entry)
The experiment in a line: Inhibition of human full length PKMYT1 expressed in HEK293 cells assessed as decrease in GST-tagged Cdk1 phosphorylation at tyrosine 15 at 5 to 20 uM after 1 hr by Western blot method relative to control. It is filed as cell-based.

Assay [4] addresses T2, Membrane-associated tyrosine- and threonine-specific cdc2-inhibitory kinase (Homo sapiens). The experiment in a line: Inhibition of PKMYT1 in human HT29 cells assessed as decrease in Cdk1 phosphorylation at tyrosine 15 at 4 uM after 24 hrs by Western blot method. It counts as cell-based. Background: A western blot detects proteins with antibodies after separation by electrophoresis.

In general, IC50 refers to the point on the concentration scale where inhibition reaches its midpoint. High values mean a need for much substance, low ones inhibition by little substance. One may read the Ki as a measure of affinity in units of concentration, obtained from inhibition or displacement. Low readings indicate a stronger hold on the target, high ones a looser hold on the target.

Regarding `COc1cc2ncnc(Nc3cccc(Cl)c3)c2cc1OC` [TYRPHOSTIN AG-1478], the IC50 in assay [1] was 19600 nM; in assay [2], 55000 nM. In addition, the Ki was 1870 nM in assay [1] and 26200 nM in assay [2].
Turning to `NC(=O)c1cccc(Nc2nccc(Nc3cccc4[nH]ncc34)n2)c1` [GW782612X], the inhibition entry in assay [3] is “Active”.
Consider `Cc1cc(O)cc(Nc2ccnc3cc(-c4ccccn4)ccc23)c1`, for which the IC50 in assay [1] was 543 nM; in assay [2], 9430 nM. In addition, the inhibitory constant (Ki) in assay [1] amounted to 51.7 nM; in assay [2], 6150 nM. Moreover, the inhibition result in assay [3] and in assay [4] was “Active” throughout.
On to `CNC(=O)c1ccccc1Nc1nc(Nc2ccc(N3CCOCC3)cc2)ncc1Cl`, for which the values for the concentration for half-maximal inhibition (IC50) in assay [1] and in assay [2] were 270 nM and 352 nM, respectively. The figures for the Ki in assay [1] and in assay [2] were 25.7 nM and 180 nM, respectively. The inhibition entry in assay [3] and in assay [4] was “Active” in each case.
In assay [1], `Cc1cc(O)cc(C)c1/C=C/c1cncc(C(N)=O)c1` [GW435821X] yielded an IC50 of 14500 nM and a Ki of 1380 nM. In assay [2], this compound had an IC50 of 876 nM and a Ki of 522 nM. Also, the inhibition result in assay [3] is “Active”.
In assay [1], `O=C(Nc1cccc(-c2nn3ncccc3c2-c2ccnc(Nc3cccnc3)n2)c1)c1c(F)cccc1F` registered an IC50 of 7560 nM and a Ki of 720 nM. For the same compound, in assay [2], the concentration for half-maximal inhibition (IC50) turned out to be 18900 nM and the Ki turned out to be 14700 nM. For the same compound, in assay [3], the inhibition result is “Active”.
For the compound `COc1cc(Nc2ncc(C#N)c(Nc3ccccc3C(N)=O)n2)ccc1N1CCN(C)CC1`, the inhibition result in assay [3] and in assay [4] was “Active” in each case.
`Oc1cccc(Nc2ccnc3cc(-c4ccncc4)ccc23)c1`: the IC50 turned out to be 706 nM in assay [1] and 332 nM in assay [2]. Also, the Ki in assay [1] stood at 67.2 nM; in assay [2], 201 nM. For the same compound, the inhibition entry in assay [3] was “Active”.
In assay [1], `CCN(CC)CCOc1ccc(Nc2ncc3cc(-c4c(Cl)cccc4Cl)c(=O)n(C)c3n2)cc1` [PD-0166285] yielded an IC50 of 8 nM and a Ki of 0.8 nM. Moreover, in assay [2], the half-inhibitory concentration (IC50) worked out at 31.1 nM and the Ki stood at 2 nM.
Take `Cc1cc(Nc2ncc3cc(-c4c(Cl)cccc4Cl)c(=O)n(C)c3n2)ccc1F`: the results for the IC50 in assay [1] and in assay [2] were 109 nM and 2700 nM, respectively. Also, the Ki in assay [1] was 10.4 nM; in assay [2], 13500 nM.
For the compound `NC(=O)c1cc(-c2ccncc2)cc(-c2ccccc2)c1N` [GSK-625137A], in assay [1], the half-inhibitory concentration (IC50) turned out to be 58000 nM and the affinity, expressed as Ki, was 5520 nM. In addition, in assay [2], the IC50 was 11400 nM and the Ki is 5810 nM. In addition, the inhibition result in assay [3] was “Active”.
Consider `Cn1c(=O)c(-c2c(Cl)cccc2Cl)cc2cnc(Nc3ccc(N4CCOCC4)cc3)nc21`, for which the IC50 came out at 24 nM in assay [1] and 55 nM in assay [2]. The figures for the inhibitory constant (Ki) in assay [1] and in assay [2] were 2.3 nM and 8.1 nM, respectively.
With `CNC(=O)c1ccccc1Nc1nc(Nc2cccc(CS(C)(=O)=O)c2)ncc1C`, the IC50 in assay [1] amounted to 115 nM; in assay [2], 151 nM. In addition, the inhibitory constant (Ki) was found to be 10.9 nM in assay [1] and 104 nM in assay [2]. The inhibition result in assay [3] and in assay [4] was “Active” in each case.
